US20080269193A1, “Tetrahydroindole and Tetrahydroindazole Derivatives” (priority 2007, published 2008)

Legend:
NCl/ADR-RES cell line = experiment: Potency against adriamycin-resistant breast cancer cell line; assay type: cell-based, human; settings: vs non-fluorinated parent analog
Procedure: (§1) A panel of cancer cell lines was obtained from the DCTP Tumor Repository, National Cancer Institute (Frederick, Md.) or ATCC (Rockville, Md.). Cell cultures were maintained in Hyclone RPMI 1640 medium (Logan, Utah) supplemented with 10% fetal bovine serum and 20 mM HEPES buffer, final pH 7.2, at 37° C. with a 5% CO2 atmosphere. Cultures were maintained at sub-confluent densities. Human umbilical vein endothelial cells (HUVEC) were purchased from Clonetics, a division of Cambrex (Walkersville, Md.). Cultures were established from cryopreserved stocks using Clonetics EGM-2 medium supplemented with 20 mM HEPES, final pH 7.2, at 37° C. with a 5% CO2 atmosphere.
(§2) For proliferation assays, cells were seeded with the appropriate medium into 96 well plates at 1,000-2,500 cells per well, depending on the cell line, and were incubated overnight. The following day, test compound, DMSO solution (negative control), or Actinomycin D (positive control) was added to the appropriate wells as 10× concentrated stocks prepared in phosphate buffered saline. […] Optical density was determined for each well at […] using a Tecan GeniosPro plate reader (RTP, NC). The percentage of cell growth was determined by comparing the cell growth in the presence of test compounds to the cells treated with DMSO vehicle (control, 100% growth) and cells treated with Actinomycin D (10 μM, 0% growth).

[1] = test system: MES-SA/Dx5 (MDR+) cell line; experiment: Potency against multi-drug resistant cell line; assay type: cell-based; settings: vs non-fluorinated parent analog
Procedure: as §1, §2

[2] = Oral bioavailability in rat; settings: in vivo, 10 mg/kg over 24 hours, read-out: oral bioavailability (F)
[3] = test system: HSP-90 (heat shock protein 90); experiment: Determination of affinity for HSP-90 (purine affinity column elution); assay type: binding; set-up: key: +++: very high; ++: high; +: moderate; settings: elution from purine affinity column
Procedure: Affinity of test compounds for HSP-90 was determined as follows: Protein mixtures obtained from a variety of organ tissues (for example: spleen, liver and lung) were reversibly bound to a purine affinity column to capture purine-binding proteins, especially HSP-90. The purine affinity column was washed several times, and then eluted with 20 μM, 100 μM, and 500 μM of test compound. Compounds of Formula I elute HP-90 in a dose-dependent manner vs. a control elution using dimethylsulfoxide. The elution profile of Formula I compounds was determined by 1-dimensional SDS polyacrylamide gel electrophoresis. Gels were stained with a fluorescent stain such as sypro ruby (a highly sensitive fluorescent protein stain that can readily detect less than 1 fmol of total protein, i.e., less than 0.04 ng for a 40 kDa protein) or silver nitrate. The gels were imaged using a standard flat bed gel imager and the amount of protein estimated by densitometry. The percent of HSP-90 protein eluted from the column at each concentration was determined and IC50 values were calculated from these estimates.

PC-3 cell line = experiment: PC-3 cell proliferation assay; assay type: cell-based; settings: for IC50: Homo sapiens, PC-3 cells, read-out: inhibitory activity against PC-3 cell proliferation (IC50 range)
Procedure: as §1
For proliferation assays, cells were seeded with the appropriate medium into 96 well plates at 1,000-2,500 cells per well, depending on the cell line, and were incubated overnight. The following day, test compound, DMSO solution (negative control), or Actinomycin D (positive control) was added to the appropriate wells as 10× concentrated stocks prepared in phosphate buffered saline. The cell plates were then incubated for an additional 2-5 days, depending on the cell line, to allow proliferation to occur. To measure cell density, 50 μL of WST-1 solution (Roche Applied Science, Ind.) diluted 1:5 in phosphate buffered saline was added to each well, and the cells incubated for an additional 1-5 hrs., again depending on the cell line. Optical density was determined for each well at […] using a Tecan GeniosPro plate reader (RTP, NC). The percentage of cell growth was determined by comparing the cell growth in the presence of test compounds to the cells treated with DMSO vehicle (control, 100% growth) and cells treated with Actinomycin D (10 μM, 0% growth).
Immediately after the WST-1 determination, the medium was removed from the PC-3, NCI-H460 and HUVEC cell lines, and the plates stored at −80° C. Using these assay plates, relative amounts of DNA in each well were determined using the Cyquant DNA assay kit from […] (Eugene, Oreg.) following the manufacturer's directions. Results for each compound treatment were compared to DMSO vehicle control (100%) and 10 μM Actinomycin D treated cells (0%).

Aqueous solubility = assay type: physicochemical; settings: water; mono hydrochloride salt

CC1(C)CC(=O)c2c(CC3CC3)nn(-c3cc(F)c(C(N)=O)c(NC4CCOCC4)c3)c2C1 [Example 48, 4-(3-(cyclopropylmethyl)-6,6-dimethyl-4-oxo-4,5,6,7-tetrahydro-1H-indazol-1-yl)-2-fluoro-6-(tetrahydro-2H-pyran-4-ylamino)benzamide]
times more potent against NCl/ADR-RES cell line (NCl/ADR-RES cell line): 3-10 times
times more potent against MES-SA/Dx5 (MDR+) cell line [1]: 4-6 times

Cc1nn(-c2cc(F)c(C(N)=O)c(NC3CCOCC3)c2)c2c1C(=O)CC(C)(C)C2 [Example 50, 2-fluoro-6-(tetrahydro-2H-pyran-4-ylamino)-4-(3,6,6-trimethyl-4-oxo-4,5,6,7-tetrahydro-1H-indazol-1-yl)benzamide]
bioavailability [2]: > 40%

CCc1nn(-c2ccc(C(N)=O)c(N[C@H]3CC[C@H](O)CC3)c2F)c2c1C(=O)CC(C)(C)C2 [Example 51, 4-(3-ethyl-6,6-dimethyl-4-oxo-4,5,6,7-tetrahydro-1H-indazol-1-yl)-3-fluoro-2-(trans-4-hydroxycyclohexylamino)benzamide]
relative binding affinity to HSP-90 [3]: +++
IC50 (PC-3 cell line): < 500 nM

CCc1nn(-c2cc(F)c(C(N)=O)c(NC3CC=CC3)c2)c2c1C(=O)CC(C)(C)C2 [Example 89, 2-(cyclopent-3-enylamino)-4-(3-ethyl-6,6-dimethyl-4-oxo-4,5,6,7-tetrahydro-1H-indazol-1-yl)-6-fluorobenzamide]
relative binding affinity to HSP-90 [3]: +++
IC50 (PC-3 cell line): < 500 nM

CCc1nn(-c2cc(F)c(C(N)=O)c(NCC(OC)OC)c2)c2c1C(=O)CC(C)(C)C2 [Example 97, 2-(2,2-dimethoxyethylamino)-4-(3-ethyl-6,6-dimethyl-4-oxo-4,5,6,7-tetrahydro-1H-indazol-1-yl)-6-fluorobenzamide]
relative binding affinity to HSP-90 [3]: +++
IC50 (PC-3 cell line): < 500 nM

C#CCN1CCC(Nc2cc(-n3nc(C(F)F)c4c3CC(C)(C)CC4=O)ccc2C(N)=O)CC1 [Example 106, 4-(3-(difluoromethyl)-6,6-dimethyl-4-oxo-4,5,6,7-tetrahydro-1H-indazol-1-yl)-2-(1-(prop-2-ynyl)piperidin-4-ylamino)benzamide]
inhibition of PC-3 cell line growth, times more (PC-3 cell line; vs compounds lacking a basic nitrogen or amino group at R6): 5-10 times

CC1(C)CC(=O)c2c(C(F)(F)F)nn(-c3ccc(C(N)=O)c(N[C@@H]4CCCC[C@H]4N)c3)c2C1 [Example 119, 2-((1R,2R)-2-aminocyclohexylamino)-4-(6,6-dimethyl-4-oxo-3-(trifluoromethyl)-4,5,6,7-tetrahydro-1H-indazol-1-yl)benzamide]
relative binding affinity to HSP-90 [3]: +++
IC50 (PC-3 cell line): < 500 nM

C#CCN1CCC[C@H](Nc2cc(-n3nc(C(F)(F)F)c4c3CC(C)(C)CC4=O)ccc2C(N)=O)C1 [Example 121, (S)-4-(6,6-dimethyl-4-oxo-3-(trifluoromethyl)-4,5,6,7-tetrahydro-1H-indazol-1-yl)-2-(1-(prop-2-ynyl)piperidin-3-ylamino)benzamide]
solubility (Aqueous solubility): > 10000 µg/mL

CC1(C)CC(=O)c2c(C(F)(F)F)nn(-c3ccc(C(N)=O)c(NCCSc4ncccn4)c3)c2C1 [Example 124, 4-(6,6-dimethyl-4-oxo-3-(trifluoromethyl)-4,5,6,7-tetrahydro-1H-indazol-1-yl)-2-(2-(pyrimidin-2-ylthio)ethylamino)benzamide]
IC50 (PC-3 cell line): 500 to 5000 nM

CC(C)(C)CN[C@H]1CC[C@H](Nc2cc(-n3nc(C(F)(F)F)c4c3CC(C)(C)CC4=O)ccc2C(N)=O)CC1 [Example 140, 4-(6,6-dimethyl-4-oxo-3-(trifluoromethyl)-4,5,6,7-tetrahydro-1H-indazol-1-yl)-2-(trans-4-(neopentylamino)cyclohexylamino)benzamide]
relative binding affinity to HSP-90 [3]: +++
IC50 (PC-3 cell line): < 500 nM

CC1(C)CC(=O)c2c(C(F)(F)F)nn(-c3ccc(C(N)=O)c(NC4CCC4)c3)c2C1 [Example 148, 2-(cyclobutylamino)-4-(6,6-dimethyl-4-oxo-3-(trifluoromethyl)-4,5,6,7-tetrahydro-1H-indazol-1-yl)benzamide]
times more active in PC-3 cell line (PC-3 cell line; vs open chain butyl or alkyl analogs containing no oxygen): 20-100 times

CC1(C)CC(=O)c2c(C(F)(F)F)nn(-c3ccc(C(N)=O)c(NCCO)c3)c2C1 [Example 150, 4-(6,6-dimethyl-4-oxo-3-(trifluoromethyl)-4,5,6,7-tetrahydro-1H-indazol-1-yl)-2-(2-hydroxyethylamino)benzamide]
times more potent in PC-3 cell line (PC-3 cell line; vs alkyl analogs without oxygen): 10-30 times

CC1(C)CC(=O)c2c(CC3CC3)nn(-c3ccc(C(N)=O)c(NC4CCOCC4)c3)c2C1 [Example 157, 4-(3-(cyclopropylmethyl)-6,6-dimethyl-4-oxo-4,5,6,7-tetrahydro-1H-indazol-1-yl)-2-(tetrahydro-2H-pyran-4-ylamino)benzamide]
relative binding affinity to HSP-90 [3]: +++
IC50 (PC-3 cell line): < 500 nM

C[C@H](O)CNc1cc(-n2nc(C(F)(F)F)c3c2CC(C)(C)CC3=O)ccc1C(N)=O [Example 165, (S)-4-(6,6-dimethyl-4-oxo-3-(trifluoromethyl)-4,5,6,7-tetrahydro-1H-indazol-1-yl)-2-(2-hydroxypropylamino)benzamide]
relative binding affinity to HSP-90 [3]: +++
IC50 (PC-3 cell line): 500 to 5000 nM

CC1(C)CC(=O)c2c(C(F)(F)F)nn(-c3ccc(C(N)=O)c(N[C@H]4CCCC[C@@H]4O)c3)c2C1 [Example 172, 4-(6,6-dimethyl-4-oxo-3-(trifluoromethyl)-4,5,6,7-tetrahydro-1H-indazol-1-yl)-2-((1S,2S)-2-hydroxycyclohexylamino)benzamide]
times more potent in PC-3 cell line (PC-3 cell line; vs cyclohexyl analogs not substituted with an oxygen atom): 20-50 times

CCc1nn(-c2ccc(C(N)=O)c(N[C@H]3CCC[C@@H]3O)c2)c2c1C(=O)CC(C)(C)C2 [Example 180, 4-(3-ethyl-6,6-dimethyl-4-oxo-4,5,6,7-tetrahydro-1H-indazol-1-yl)-2-((1S,2S)-2-hydroxycyclopentylamino)benzamide]
relative binding affinity to HSP-90 [3]: +++
IC50 (PC-3 cell line): < 500 nM

Cc1nn(-c2ccc(C(N)=O)c(N[C@H]3CCOC3)c2)c2c1C(=O)CC(C)(C)C2 [Example 181, (S)-2-(tetrahydrofuran-3-ylamino)-4-(3,6,6-trimethyl-4-oxo-4,5,6,7-tetrahydro-1H-indazol-1-yl)benzamide]
times more active in PC-3 cell line (PC-3 cell line; vs non-oxygen containing cyclopentyl analogs): 20-50 times

CCc1nn(-c2ccc(C(N)=O)c3[nH]c(C)nc23)c2c1C(=O)CC(C)(C)C2 [Example 186, 4-(3-ethyl-6,6-dimethyl-4-oxo-4,5,6,7-tetrahydro-1H-indazol-1-yl)-2-methyl-1H-benzo[d]imidazole-7-carboxamide]
relative binding affinity to HSP-90 [3]: ++
IC50 (PC-3 cell line): 5000 to 50000 nM
